Source: patent publication US6710090B2, “Inhibitory or blocking agents of molecular generating and/or inducing functions” (priority 1994, dated 2004)

Experiments:
trypsin = assay: Function and configuration of trypsin, electrophoresis; format: biochemical; conditions: after treatment with Yoshixol 4 μl
Method: Each physiological effect of trypsin (Wakou Jyunyaku Ltd.) and thrombin (Behlinger Manheim-Yamanouchi Co.) was investigated by electrophoresis. When trypsin was added to bovine albumin (Sigma Co. Saint Louis, Mo., USA) or myoglobin (Sigma Co. Saint Louis, Mo., USA), each primary structure of proteins which consist of albumin was altered by proteolytic action of trypsin. In addition, when thrombin was added to human fibrinogen (Behlinger Manheim-Yamanouchi Co.), a primary structure of proteins which consists of fibrinogen was not found.

[1] = tested on: human defibrinized serum, bovine albumin, human fibrinogen, myoglobin, anti-A blood type serum and anti-B blood type serum; assay: Primary structure of proteins, electrophoretic analysis of non-SDS wide page; format: biochemical; conditions: 1 ml protein solutions, Yoshixol 4 μl, heated denaturation
Method: Changes in molecular weight composition of the following macromolecular proteins (1 mole solution) before and after treatment with Yoshixol (4 μl) were investigated after heated denaturation by electrophoretic analysis of non-SDS wide page. The used macromolecules proteins solutions of 1 ml are human defibrinized serum, bovine albumin, human fibrinogen, myoglobin, anti-A blood type serum and anti-B blood type serum (Green Cross Co.). Even after treatment with Yoshixol, distribution of molecular weights on electrophoretic analysis was identical to that of the macromolecules proteins which is not treated (referred FIG. 7).

[2] = tested on: atypical mycobacteria (Mycobacterium Rapid Grower); assay: Anti-microbacterial effect on acid-fast bacteria; format: cell-based
HeLa cells = assay: Anti-cancer effect, cultured HeLa cells; format: cell-based; conditions: compared with keratinocytes treated with Yoshixol
[3] = tested on: rejected reaction on heterogeneous skin implantation; assay: Heterogeneous skin implantation, donor skin pretreated with Yoshixol solution; format: in vivo, rabbit and dog
From the text: Changes in transplanted skin for 3 months were observed by macroscopically and microscopically, when a piece of skin with entire layer (diameter 3 centimeter meter) at a region of the back of rabbit was transplanted to the region of the back of adult mongrel dog as the entire layer transplantation, and when a piece of skin with entire layer (diameter 3 centimeter meter) at a region of the back of adult mongrel dog was transplanted to the region of the back of rabbit as the entire layer transplantation. Firstly, each piece of skin from rabbit or dog was treated with 5 ml of physiological saline with 10 μl of the test solution for 2 minutes so that each skin piece was transplanted to each recipient by the surgical suture. Two kinds of the test solution were prepared for the above treatment; as control solution, basal solution consists of 2 ml of polyoxyethylene (20) sorbitan monoolate 1 (Wakou Jyunyaku Co.) which is identical to Tween 80 (ICI Ltd.) and 88 ml of physiological saline, and as treated solution, 10 ml of Yoshixol was added in the basal solution. And, 10 μl of Yoshixol was treated directly on the transplanted wound for 3 days after implantation. […] Then, implantated wound of the recipient was cured with a self regenerated skin of each recipient after 3 months. On the other hand, when a piece of transplanted skin is dipped in the Yoshixol solution, the treated skin became to be soft and increases in it's thickness. And, a suture procedure with surgical needle was easily done. […] So that an inflammatory tissue reaction was not also found after 1 month. […] Simultaneously with the above, Yoshixol can inhibit complications of infections on the donor tissues or organs, and can improve an implantation effect. Moreover, by using an entire layer (diameter 3 centimeter meter) of rabbit skin, changes in a piece of the transplanted skin which was sutured to the back of the dog as the recipient were investigated over 3 months after the implantation. […] An outer layer of the transplanted skin was faded 3 month after the implantation likely as to strip a thin membrane.

[4] = Softening and flexibility effect on skin; parameters: species or system rabbit and dog; conditions: histology, hematoxylin eosin staining
Method: In order to investigate changes of softening and flexibility on skin from rabbit and dog, each skin was is dipped in 5 ml of physiological saline with 10 μl of the test solution. This test solution was prepared from 88 ml of physiological saline with 2 ml of polyoxyethylene (20) sorbitan monoolate 1 (Wakou Jyunyaku Co.) that is identical to Tween80 (ICI Co.) as the basal solution of control. As the treated solution, 10 ml of Yoshixol was added in the basal solution. […] Surgical stitching by the needle was easily to be inserted and transfixed in the skin. […] And, the sample treated with Yoshixol was observed as the preparation which was made from a fresher sample by hematoxylin eosin staining in contrast to the skin sample treated with the test solution of control. Moreover, a similar observation on histological pictures of each sample was obtained even when each skin sample was thawed at 20° C. after storaging each sample at 4° C. in the refrigeration for one month.

## C=C1CC(C)(C)C=CC1=O [Yoshixol, 4,4-dimethyl-6-methylene-2-cyclohexen-1-one]
trypsin
  physiological function of trypsin to bovine albumin, myoglobin: did not occur
  primary structure of trypsin (electrophoresis): did not show any electrophoretic changes
[1]
  distribution of molecular weights on electrophoretic analysis versus not treated: identical
[2]; 50 μl in the whole space of the schale, indirect contact, 24 hours, 37° C.
  proliferation with evaporating component of Yoshixol: did not occur
[2]; at 2 μl
  diameter of inhibition zone of proliferation: 22 mm
[2]; brain-heart infusion agar
  dosage at which formation of inhibition zone of proliferation occurred: 0.2 μl of Yoshixol per 1 ml of the culture medium
HeLa cells
  structure between cells and cellular aspect: observations similar to the above were found
[3]; skin dipped 2 minutes in Yoshixol solution, 10 μl on wound for 3 days, 2 weeks after implantation
  desquamation and deciduation of transplanted skin: did not show a desquamation and deciduation
[3]; skin dipped in Yoshixol solution, 10 μl on wound for 3 days
  inflammation reaction of transplanted skin: inhibited
[3]; skin dipped in Yoshixol solution, after 1 month
  transplanted wound: cured to a level which could not find a boundary with a skin of recipient
[4]
  structure damages of each skin: did not found histologically
